DBAASP
Converted amounts (≈) assume the structure as drawn.

Assays:
Assay in all cases: ≥ marks a high value that may be exact or a test limit, other limits are often not marked, values filed in µg/mL are converted to µM
[1] = system: Pseudomonas aeruginosa Ps4
[2] = system: Staphylococcus aureus ATCC 2592
[3] = system: Candida albicans ATCC 2002
Bacillus subtilis = system: Bacillus subtilis
[4] = system: Escherichia coli ATCC 25922
[5] = system: Salmonella enterica serovar Typhimurium
[6] = system: Pseudomonas aeruginosa PAO1
Staphylococcus aureus = system: Staphylococcus aureus
Pseudomonas aeruginosa = system: Pseudomonas aeruginosa
Escherichia coli UB1005 = system: Escherichia coli UB1005
[7] = system: Pseudomonas aeruginosa CMCCB 10104
[8] = system: Staphylococcus aureus NCTC 8325
[9] = system: Staphylococcus aureus ATCC 25923
Escherichia coli = system: Escherichia coli
Acinetobacter baumannii = system: Acinetobacter baumannii
[10] = system: Candida albicans ATCC 90028

| Structure (SMILES) | MIC [2] | MIC [3] | MIC [4] | MIC [8] | further results |
| --- | --- | --- | --- | --- | --- |
| CC[C@H](C)[C@H](NC(=O)[C@H](CC(N)=O)NC(=O)[C@H](CCCN=C(N)N)NC(=O)[C@H](CCC(N)=O)NC(=O)[C@H](Cc1c[nH]c2ccccc12)NC(=O)[C@@H](N)Cc1ccccc1)C(=O)N[C@@H](CO)C(=O)N[C@@H](CCCCN)C(=O)N[C@H](C(=O)N[C@@H](CCCN=C(N)N)C(N)=O)C(C)C [FWQRNISKVR] | – | – | – | – | MIC [1]: ≥ 187 µM |
| CC[C@H](C)[C@H](NC(=O)[C@H](Cc1ccccc1)NC(=O)[C@H](CCCCN)NC(=O)[C@H](CCCCN)NC(=O)[C@H](Cc1c[nH]c2ccccc12)NC(=O)[C@@H](N)CCCCN)C(=O)N[C@@H](CCCCN)C(=O)N[C@@H](CO)C(=O)N[C@@H](CC(C)C)C(=O)N[C@H](C(=O)N[C@@H](CCCCN)C(=O)N[C@@H](CO)C(=O)N[C@@H](C)C(=O)N[C@@H](C)C(=O)N[C@@H](CCCCN)C(=O)N[C@H](C(=O)N[C@H](C(=O)N[C@H](C(=O)N[C@@H](CCCCN)C(=O)N[C@H](C(=O)N[C@@H](C)C(=O)N[C@@H](CCCCN)C(=O)N[C@@H](CCCCN)C(=O)N1CCC[C@H]1C(=O)N[C@@H](CC(C)C)C(=O)N[C@H](C(=O)N[C@H](C(N)=O)C(C)C)[C@@H](C)CC)[C@@H](C)O)C(C)C)C(C)C)[C@@H](C)O)[C@@H](C)O [KWKKFIKSLTKSAAKTVVKTAKKPLIV] | – | – | – | – | MIC [5]: 0.986 µM (≈ 3 µg/mL); MIC [6]: 1.31 µM (≈ 4 µg/mL); MIC (Staphylococcus aureus): > 21 µM; MIC (Pseudomonas aeruginosa): 0.93 µM (≈ 2.83 µg/mL); MIC (Escherichia coli UB1005): 0.329 µM (≈ 1 µg/mL) |
| CC[C@H](C)[C@H](N)C(=O)N[C@@H](CC(C)C)C(=O)N1CCC[C@H]1C(=O)N[C@@H](CC(C)C)C(=O)N[C@@H](CC(C)C)C(=O)N[C@@H](CC(C)C)C(=O)NCC(=O)N[C@@H](CCCCN)C(=O)N[C@H](C(=O)N[C@H](C(=O)N[C@H]1CSSC[C@@H](C(=O)O)NC(=O)[C@H](CCCCN)NC(=O)[C@H](CCCCN)NC(=O)[C@H]([C@@H](C)O)NC(=O)[C@H]([C@@H](C)CC)NC(=O)[C@H](C)NC1=O)C(C)C)C(C)C [ILPLLLGKVVCAITKKC] | – | – | 30 µM (≈ 54.3 µg/mL) | 7 µM (≈ 12.7 µg/mL) | – |
| CC[C@H](C)[C@H](NC(=O)[C@H](C)NC(=O)[C@H](CO)NC(=O)[C@H](CC(C)C)NC(=O)[C@@H](N)Cc1ccccc1)C(=O)N[C@H](C(=O)N[C@@H](CO)C(=O)N[C@@H](CC(C)C)C(=O)N[C@@H](CC(C)C)C(=O)NCC(=O)N[C@@H](CCCCN)C(=O)N[C@@H](CC(C)C)C(=O)N[C@@H](CC(C)C)C(N)=O)[C@@H](C)O [FLSAITSLLGKLL] | – | – | – | 6 µM (≈ 8.25 µg/mL) | – |
| CC[C@H](C)[C@H](N)C(=O)N[C@@H](CC(C)C)C(=O)N1CCC[C@H]1C(=O)N[C@@H](CC(C)C)C(=O)N[C@H](C(=O)NCC(=O)N[C@@H](CC(N)=O)C(=O)N[C@@H](CC(C)C)C(=O)N[C@@H](CC(C)C)C(=O)N[C@@H](CC(N)=O)C(=O)N[C@@H](CC(=O)O)C(=O)N[C@@H](CC(C)C)C(=O)N[C@@H](CC(C)C)C(N)=O)C(C)C [ILPLVGNLLNDLL] | – | – | > 100 µM | ≥ 100 µM | – |
| CC[C@H](C)[C@H](NC(=O)[C@H](CO)NC(=O)CNC(=O)[C@@H](NC(=O)[C@@H](N)C(C)C)[C@@H](C)CC)C(=O)N[C@@H](CC(C)C)C(=O)NCC(=O)N[C@@H](C)C(=O)N[C@@H](CC(C)C)C(=O)N[C@@H](C)C(=O)N[C@@H](CO)C(=O)NCC(=O)N[C@@H](CC(C)C)C(=O)N1CCC[C@H]1C(=O)N[C@H](C(=O)N[C@@H](CC(C)C)C(=O)N[C@H](C(=O)N[C@@H](CO)C(=O)N[C@@H](Cc1c[nH]c2ccccc12)C(=O)N[C@H](C(=O)N[C@@H](CCCCN)C(=O)N[C@@H](CC(N)=O)C(=O)N[C@@H](CCCN=C(N)N)C(N)=O)[C@@H](C)CC)[C@@H](C)CC)[C@@H](C)O [VIGSILGALASGLPTLISWIKNR] | – | – | 25 µM (≈ 59.5 µg/mL) | 6 µM (≈ 14.3 µg/mL) | MIC [10]: 25 µM (≈ 59.5 µg/mL) |
| CC[C@H](C)[C@H](NC(=O)[C@H](CC(C)C)NC(=O)[C@H](CC(N)=O)NC(=O)[C@@H](NC(=O)[C@H](CC(C)C)NC(=O)[C@@H](NC(=O)[C@@H]1CCCN1C(=O)[C@H](CC(C)C)NC(=O)[C@@H](N)Cc1ccccc1)[C@@H](C)CC)[C@@H](C)CC)C(=O)N[C@@H](Cc1cnc[nH]1)C(=O)N[C@@H](CCCCN)C(=O)NCC(=O)N[C@@H](CC(C)C)C(=O)N[C@@H](CC(C)C)C(N)=O [FLPILINLIHKGLL] | – | – | > 150 µM | ≥ 125 µM | MIC [10]: ≥ 150 µM |

More lines, in order of falling MIC [4], values ahead:

| MIC [2] | MIC [3] | MIC [4] | MIC [8] | Structure (SMILES) | further results |
| --- | --- | --- | --- | --- | --- |
| – | – | 21.3 µM (≈ 32 µg/mL) | – | CC[C@H](C)[C@H](NC(=O)[C@H](CCCN=C(N)N)NC(=O)[C@H](Cc1c[nH]c2ccccc12)NC(=O)[C@H](CCC(N)=O)NC(=O)[C@@H](N)C(C)C)C(=O)N[C@@H](CCCN=C(N)N)C(=O)N[C@H](C(=O)N[C@@H](CS)C(=O)N[C@H](C(=O)N[C@H](C(=O)N[C@@H](CCCN=C(N)N)C(=O)N[C@@H](C)C(=O)O)[C@@H](C)CC)C(C)C)C(C)C [VQWRIRVCVIRA] | MIC [5]: 21.3 µM (≈ 32 µg/mL); MIC [9]: 21.3 µM (≈ 32 µg/mL); MIC [6]: 21.3 µM (≈ 32 µg/mL) |
| 2.38 µM (≈ 3.1 µg/mL) | 1.23 µM (≈ 1.6 µg/mL) | 19.2 µM (≈ 25 µg/mL) | – | CC[C@H](C)[C@H](NC(=O)[C@H](CCCCN)NC(=O)CNC(=O)[C@H](CC(C)C)NC(=O)[C@H](CC(C)C)NC(=O)[C@H](CO)NC(=O)[C@H](C)NC(=O)[C@H](CC(C)C)NC(=O)[C@H](CC(C)C)NC(=O)CNC(=O)CNC(=O)[C@H](CC(C)C)NC(=O)[C@@H](N)Cc1ccccc1)C(=O)O [FLGGLLASLLGKI] | MIC (Bacillus subtilis): 2.38 µM (≈ 3.1 µg/mL) |
| ≥ 50.7 µM | 4.75 µM (≈ 9.38 µg/mL) | 19 µM (≈ 37.5 µg/mL) | – | CC(C)[C@H](N)C(=O)N[C@@H](CCCCN)C(=O)N[C@@H](CCCN=C(N)N)C(=O)N[C@@H](Cc1ccccc1)C(=O)N[C@@H](CCCCN)C(=O)N[C@@H](CCCCN)C(=O)N[C@@H](Cc1ccccc1)C(=O)N[C@@H](Cc1ccccc1)C(=O)N[C@@H](CCCN=C(N)N)C(=O)N[C@@H](CCCCN)C(=O)N[C@@H](Cc1ccccc1)C(=O)N[C@@H](CCCCN)C(=O)N[C@@H](CCCCN)C(=O)N[C@@H](CO)C(=O)N[C@H](C(N)=O)C(C)C [VKRFKKFFRKFKKSV] | MIC (Bacillus subtilis): ≥ 50.7 µM |
| 1.02 µM (≈ 2 µg/mL) | 1.02 µM (≈ 2 µg/mL) | 10.2 µM (≈ 20 µg/mL) | – | CC[C@H](C)[C@H](N)C(=O)N[C@@H](CC(C)C)C(=O)NCC(=O)N1CCC[C@H]1C(=O)N[C@H](C(=O)N[C@@H](CC(C)C)C(=O)N[C@@H](CO)C(=O)N[C@@H](CCSC)C(=O)N[C@H](C(=O)NCC(=O)N[C@@H](CO)C(=O)N[C@@H](C)C(=O)N[C@@H](CC(C)C)C(=O)NCC(=O)NCC(=O)N[C@@H](CC(C)C)C(=O)N[C@H](C(=O)N[C@@H](CCCCN)C(=O)N[C@@H](CCCCN)C(=O)N[C@H](C(N)=O)[C@@H](C)CC)[C@@H](C)CC)C(C)C)C(C)C [ILGPVLSMVGSALGGLIKKI] | MIC [7]: 2.03 µM (≈ 4 µg/mL) |
| 2.49 µM (≈ 3.7 µg/mL) | 5.05 µM (≈ 7.5 µg/mL) | 10.1 µM (≈ 15 µg/mL) | – | CC[C@H](C)[C@H](N)C(=O)N[C@@H](CC(N)=O)C(=O)N[C@@H](Cc1c[nH]c2ccccc12)C(=O)N[C@@H](CCCCN)C(=O)NCC(=O)N[C@H](C(=O)N[C@@H](C)C(=O)N[C@@H](C)C(=O)N[C@@H](CCSC)C(=O)N[C@@H](CCCCN)C(=O)N[C@@H](CCCCN)C(=O)N[C@@H](CC(C)C)C(=O)N[C@@H](CC(C)C)C(N)=O)[C@@H](C)CC [INWKGIAAMKKLL] | – |
| – | – | 5.4 µM (≈ 8 µg/mL) | – | CC[C@H](C)[C@H](NC(=O)[C@H](CCCN=C(N)N)NC(=O)[C@@H](NC(=O)[C@H](CCCN=C(N)N)NC(=O)[C@H](Cc1c[nH]c2ccccc12)NC(=O)[C@H](CCC(N)=O)NC(=O)[C@@H](N)C(C)C)[C@@H](C)CC)C(=O)N[C@@H](C)C(=O)N[C@H](C(=O)N[C@H](C(=O)N[C@@H](CCCN=C(N)N)C(=O)N[C@@H](C)C(=O)O)[C@@H](C)CC)C(C)C [VQWRIRIAVIRA] | MIC [5]: 2.7 µM (≈ 4 µg/mL); MIC [9]: 5.4 µM (≈ 8 µg/mL); MIC [6]: 21.6 µM (≈ 32 µg/mL); MIC (Escherichia coli): 43.2 µM (≈ 64 µg/mL); MIC (Staphylococcus aureus): 15.3 µM (≈ 22.6 µg/mL); MIC (Acinetobacter baumannii): 21.6 µM (≈ 32 µg/mL); MIC (Pseudomonas aeruginosa): 30.6 µM (≈ 45.3 µg/mL) |
